This is an account of results in US8901074B2, “Methods of treating autoimmune diseases of the central nervous system (CNS) and neurodegenerative diseases” (Ramot at Tel-Aviv University, priority 2010, dated 2014).

A short description of data set [1]: Toxicity monitoring (body weight, eating habits, tail tone, mobility) in APP mice. The following applies: 1.07 μg/mouse every other day for 4 months. Format: in vivo. The method, then:
8-week-old APP/PSI mice were used as previously described (Oakley et al 2006, J Neurosci 26: 10129-10140). Mice were treated with either ADT21 (1.07 μg/mouse) or PBS every other day for 4 months.
Contextual fear conditioning was tested as described previously (Carlos A. et al., 2005) Mice were placed within the conditioning chamber (Coulbourn Instruments, Allentown, Pa.) (7″W×7″D×12″H) for 3 min before the onset of the unconditioned stimulus (US; footshock; 1 s/1 mA) through the cage grid floor (Model H10-11M-TC-SF) from a Coulbourn Instruments shocker (Model H13-15). Activation was detected via a camera above the cage (ACT-VP-01) with a special algorithm for motion detection, to allow them to develop a representation of the context via exploration. After the shock, mice were left in the chamber for 2 min (immediate freezing) and returned to their home cages. 24 hours after the training session, the mice were again placed in the chamber and tested for 4 min without any footshocks. The chamber was isolated in a quiet environment using the noise sealed box (H10-24T Coulbourn Instruments). Freezing response was scored by using the FreezeFrame automated system (Coulbourn Instruments). Furthermore, mice were daily monitored for body weight, eating habits, tail tone and mobility.

Data set [2] addresses T1, insulin degrading enzyme (IDE) (Homo sapiens, UniProt P14735).
T1 sequence (P14735 1-1019): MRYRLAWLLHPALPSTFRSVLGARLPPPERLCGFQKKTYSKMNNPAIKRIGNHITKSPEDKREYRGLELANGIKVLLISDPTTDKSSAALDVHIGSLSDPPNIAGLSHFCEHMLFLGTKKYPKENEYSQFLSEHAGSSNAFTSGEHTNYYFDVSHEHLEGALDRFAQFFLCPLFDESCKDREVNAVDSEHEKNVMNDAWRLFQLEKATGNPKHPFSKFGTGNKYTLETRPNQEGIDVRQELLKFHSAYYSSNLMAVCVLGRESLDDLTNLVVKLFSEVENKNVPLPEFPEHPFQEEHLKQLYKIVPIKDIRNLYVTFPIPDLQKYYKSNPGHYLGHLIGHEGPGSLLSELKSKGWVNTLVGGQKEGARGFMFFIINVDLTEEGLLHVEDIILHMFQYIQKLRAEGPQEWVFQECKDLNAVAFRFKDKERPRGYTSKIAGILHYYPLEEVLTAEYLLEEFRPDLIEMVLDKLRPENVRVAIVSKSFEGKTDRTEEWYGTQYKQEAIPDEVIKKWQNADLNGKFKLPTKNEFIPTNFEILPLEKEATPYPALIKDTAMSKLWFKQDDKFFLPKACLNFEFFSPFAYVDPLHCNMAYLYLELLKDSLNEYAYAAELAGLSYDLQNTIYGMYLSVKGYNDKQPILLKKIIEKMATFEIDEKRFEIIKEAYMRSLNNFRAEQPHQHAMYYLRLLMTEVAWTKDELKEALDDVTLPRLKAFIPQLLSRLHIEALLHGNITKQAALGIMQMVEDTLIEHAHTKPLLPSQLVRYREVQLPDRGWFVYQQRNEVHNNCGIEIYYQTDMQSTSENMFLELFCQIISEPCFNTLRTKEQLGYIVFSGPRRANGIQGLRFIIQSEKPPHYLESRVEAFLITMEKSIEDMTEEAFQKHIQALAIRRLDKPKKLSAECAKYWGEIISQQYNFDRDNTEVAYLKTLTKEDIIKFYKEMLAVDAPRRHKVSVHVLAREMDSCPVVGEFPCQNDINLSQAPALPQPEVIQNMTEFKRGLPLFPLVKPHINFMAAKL
In words: IDE enzymatic activity inhibition. The data set is classed as biochemical. Here is the method: The IDE inhibitor of the present teachings specifically down-regulates the enzymatic activity of IDE. For instance, the IC50 of IDE is in the range of 10-200 nM as assayed for ADT-21. According to exemplary embodiments, the IDE inhibitor of the present invention is capable of down-regulating by at least 5%, at least 10%, at least 15%, at least 20%, at least 30%, at least 40%, at least 50%, at least 60%, at least 70%, at least 80%, at least 90% or at least 100% the enzymatic activity of IDE.
Any method known in the art for measuring IDE activity may be used to assess down-regulation in IDE. For example, one method which may be used comprises the use of an Insulysin/IDE Immunocapture Activity Assay Kit (available e.g. from InnoZyme™, Calbiochem). Using this kit ELISA plates are first coated with the target enzyme (i.e. IDE) and then the plates are incubated with a substrate (e.g. insulin). The enzymatic activity is measured in comparison to wells without the substrate using for example a FRET substrate, Mca-GGFLRKHGQ-EDDnp (SEQ ID NO: 79). Cleavage of the scissile amide bond between R and K releases the fluorophore from the quenching molecule, Dnp, resulting in an increase in fluorescence. The increase in fluorescence is measured using an excitation wavelength of 320 nm and an emission wavelength of 405 nm.

Where no end group is shown, it is not given here.

What is called IC50 is the concentration that inhibits the measured activity by half. Low readings indicate greater potency in that assay, high ones weaker potency in that assay.

As for ITNPGSGGSSVLRYDDFHTD [ADT21], the “changes in behavior indicating toxicity (body weight, eating habits, tail tone, mobility)” value in data set [1] is reported as “no changes in their behavior”. Moreover, the 50% inhibitory concentration (IC50) in data set [2] was 10 to 200 nM.
